# Measured values as given in US20240110130A1, “COMPOSITION” (Conopco, Inc., d/b/a UNILEVER, priority 2021, published 2024).
# Test: Colour measurement (yellowing) of liquid laundry compositions comprising DHA
# Format: physicochemical
# Conditions: added to laundry liquid comprising DHA salt
structure (smiles),measurement,value
"O=S([O-])[O-].[K+].[K+] [sulphite, Potassium Sulfite]",effect on yellowing,reduces yellowing
